Like-named read-outs stand apart in the source and are kept apart here.
What was measured:
CDK1:Cyclin-B = biological target: T1, CDK1:Cyclin-B (Homo sapiens, UniProt P06493); assay: CDK1 Screening Assay; type: biochemical
T1 construct: purchased New England Biolabs, Beverly, Mass; 6020; host or cells: insect cells
Method: (§1) A kinase reaction mixture was prepared containing 50 mM Tris-HCl pH=8, 10 mM MgCl2, 0.1 mM Na3PO4, 1 mM DTT, 10 μM ATP, 0.025 μM biotinylated histone-H1 peptide substrate and 0.2 μCuries per well ^33P-γ-ATP (2000-3000 Ci/mmol). 70 μL of the kinase reaction mixture was dispensed into the well of a streptavidin coated FlashPlate™ (Cat. # SMP103, NEN, Boston, Mass.). Then 1 μL of test compound stock in 100% DMSO was added to the wells resulting in a final concentration of 1% DMSO in the reaction with a 100 μL final reaction volume.
(§2) The CDK1:Cyclin-B protein was diluted in 50 mM Tris-HCl pH=8.0, 0.1% BSA at a concentration of 1 ng per μL and 30 μL (30 ng enzyme per test well) was added to each well to initiate the reaction. The reaction was incubated for one hour at 30° C. At the end of the 1 hour incubation, the reaction was terminated by aspirating the mixture from the plate and washing the wells twice with PBS containing 100 mM EDTA. The histone-H1 biotinylated peptide substrate became immobilized on the Flashplate™ and the incorporation of ^33P-γ-ATP was measured by reading the plate on a scintillation counter. Inhibition of the enzymatic activity of CDK1 was measured by observing a reduced amount of ^33P-γ-ATP incorporated into the immobilized peptide.
The CDK1 used was isolated from insect cells expressing both the human CDK1 catalytic subunit and its positive regulatory subunit cyclin B (New England Biolabs, Beverly, Mass., Cat. #6020).

[1] = biological target: T2, rat VEGF-R2 kinase domain (Rattus norvegicus, UniProt O08775); assay: VEGF-R2 Screening Assay; type: biochemical
T2 construct: amino acids 786-1343 of the rat VEGF-R2 kinase domain; polyhistidine (N)
T2 sequence (O08775 786-1343): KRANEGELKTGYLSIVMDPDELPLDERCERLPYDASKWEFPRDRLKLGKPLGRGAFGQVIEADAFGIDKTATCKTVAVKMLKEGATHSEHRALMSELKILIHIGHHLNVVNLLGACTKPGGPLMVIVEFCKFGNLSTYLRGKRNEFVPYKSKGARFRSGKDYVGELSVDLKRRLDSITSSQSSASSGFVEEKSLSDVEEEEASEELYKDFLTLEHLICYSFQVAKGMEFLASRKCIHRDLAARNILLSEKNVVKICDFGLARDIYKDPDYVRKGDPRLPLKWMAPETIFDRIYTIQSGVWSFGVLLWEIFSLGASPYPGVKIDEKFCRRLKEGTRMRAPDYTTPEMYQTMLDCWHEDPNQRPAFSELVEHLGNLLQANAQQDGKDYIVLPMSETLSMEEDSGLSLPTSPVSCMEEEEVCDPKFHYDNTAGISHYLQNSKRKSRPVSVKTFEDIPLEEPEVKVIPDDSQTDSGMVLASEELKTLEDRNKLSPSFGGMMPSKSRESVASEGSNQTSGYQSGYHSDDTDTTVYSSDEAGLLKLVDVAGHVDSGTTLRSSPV

murine Aurora-A = biological target: T3, murine Aurora-A (Mus musculus, UniProt P97477); assay: Aurora-A Screening Assay; type: biochemical
T3 construct: replaced with the full length protein encoding the murine Aurora-A; made in house; host or cells: sf9 insect cells
T3 sequence (P97477 1-395): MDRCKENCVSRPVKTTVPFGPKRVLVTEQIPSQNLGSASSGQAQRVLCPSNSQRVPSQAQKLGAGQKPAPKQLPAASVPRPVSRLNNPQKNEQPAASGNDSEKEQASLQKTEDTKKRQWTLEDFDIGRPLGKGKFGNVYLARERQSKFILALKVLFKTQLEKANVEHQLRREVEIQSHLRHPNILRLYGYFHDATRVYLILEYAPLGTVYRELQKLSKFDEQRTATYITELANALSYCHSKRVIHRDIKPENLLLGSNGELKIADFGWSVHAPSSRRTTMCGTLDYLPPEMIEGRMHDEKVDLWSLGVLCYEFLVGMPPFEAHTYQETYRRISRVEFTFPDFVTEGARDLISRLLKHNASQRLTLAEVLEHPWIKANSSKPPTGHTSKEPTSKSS
Method: as §1, §2
The Aurora-A kinase assay was carried out using the CDK kinase assay procedure except that the enzyme was replaced with the full length protein encoding the murine Aurora-A (Accession #GB BC014711) expressed and purified from sf9 insect cells.

HER2 cytoplasmic domain = biological target: T4, HER2 cytoplasmic domain (Homo sapiens, UniProt P04626); assay: HER2 Kinase Screening Assay; type: biochemical; conditions: > means no observed 50% inhibition at the indicated test concentration; ~ means approximately 50% inhibition at that concentration
T4 construct: polyhistidine (N)
T4 sequence (P04626 676-1255 limits assumed): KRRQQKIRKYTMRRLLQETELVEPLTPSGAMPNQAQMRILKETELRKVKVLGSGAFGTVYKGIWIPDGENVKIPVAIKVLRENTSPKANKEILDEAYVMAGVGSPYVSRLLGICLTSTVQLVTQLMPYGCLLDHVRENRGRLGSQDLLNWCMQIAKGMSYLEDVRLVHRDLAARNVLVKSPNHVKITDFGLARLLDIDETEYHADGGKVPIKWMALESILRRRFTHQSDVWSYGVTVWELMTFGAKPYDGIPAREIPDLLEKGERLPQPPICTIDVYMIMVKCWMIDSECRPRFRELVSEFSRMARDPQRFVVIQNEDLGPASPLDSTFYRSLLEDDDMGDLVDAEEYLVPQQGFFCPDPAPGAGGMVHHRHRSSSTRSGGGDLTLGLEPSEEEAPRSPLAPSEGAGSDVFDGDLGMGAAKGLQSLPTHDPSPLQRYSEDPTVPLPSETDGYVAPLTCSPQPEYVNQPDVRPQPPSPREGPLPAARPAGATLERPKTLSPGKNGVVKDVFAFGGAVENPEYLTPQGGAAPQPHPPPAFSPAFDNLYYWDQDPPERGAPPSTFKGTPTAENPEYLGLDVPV
Method: as §1, §2
The HER2 kinase assay was carried out using the CDK kinase assay procedure except that the enzyme was replaced with a HER2 construct containing a polyhistidine tag at the N-terminus followed by 24 additional amino acids and the HER2 cytoplasmic domain beginning at amino acid 676 (Accession #M11730) to the end.

[2] = system: HeLa cervical adenocarcinoma; assay: Inhibition of in vitro cell proliferation (HeLa); type: cell-based, human; conditions: 14C-thymidine incorporation;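 further: cells exposed to compound for 24 h, then labelled 24 h with methyl 14C-thymidine, with uptake into DNA counted by scintillation against DMSO-only control wells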
HCT-116 colon carcinoma = assay: Inhibition of in vitro cell proliferation (HCT116); type: cell-based, human;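 further: cells exposed to compound for 24 h, then 14C-thymidine added for a further 24 h and its uptake into DNA counted by scintillation, DMSO-only wells as control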
A375 malignant melanoma = assay: Inhibition of in vitro cell proliferation (A375); type: cell-based, human;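 further: cells plated for 24 h, given compound for 24 h, then labelled with 14C-thymidine for another 24 h, with DMSO-only wells as control and counts read by scintillation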
[3] = > means no observed 50% inhibition at the indicated test concentration, ~ means approximately 50% inhibition at that concentration, read-out: IC50 VEGF-R2
[4] = Homo sapiens, HCT-116, 14C-thymidine incorporation
[5] = Homo sapiens, A-375, 14C-thymidine incorporation
[6] = > means no observed 50% inhibition at the indicated test concentration, ~ means approximately 50% inhibition at that concentration

T1 sequence (P06493 whole entry): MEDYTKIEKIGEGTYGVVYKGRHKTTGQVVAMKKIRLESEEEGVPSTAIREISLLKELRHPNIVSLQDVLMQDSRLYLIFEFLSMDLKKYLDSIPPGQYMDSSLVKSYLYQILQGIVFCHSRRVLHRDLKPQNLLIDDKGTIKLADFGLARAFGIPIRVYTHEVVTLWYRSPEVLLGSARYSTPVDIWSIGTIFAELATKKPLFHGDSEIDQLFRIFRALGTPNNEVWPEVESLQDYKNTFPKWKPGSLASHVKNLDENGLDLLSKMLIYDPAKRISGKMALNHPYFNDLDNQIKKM
T1 sequence (P14635 whole entry partner): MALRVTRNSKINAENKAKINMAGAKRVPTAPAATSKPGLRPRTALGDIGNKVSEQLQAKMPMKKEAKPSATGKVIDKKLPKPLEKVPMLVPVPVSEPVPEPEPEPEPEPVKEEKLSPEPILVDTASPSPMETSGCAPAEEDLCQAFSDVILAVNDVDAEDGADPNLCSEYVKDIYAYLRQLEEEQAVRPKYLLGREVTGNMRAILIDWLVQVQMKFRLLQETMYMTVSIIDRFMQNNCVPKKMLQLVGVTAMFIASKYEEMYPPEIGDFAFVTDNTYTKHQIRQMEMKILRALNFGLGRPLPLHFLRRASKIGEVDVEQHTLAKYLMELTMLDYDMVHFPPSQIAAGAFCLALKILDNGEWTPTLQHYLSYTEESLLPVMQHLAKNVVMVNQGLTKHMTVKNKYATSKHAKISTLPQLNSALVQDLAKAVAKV

SMILES | IC50 (CDK1:Cyclin-B) | IC50 [1, 3] | IC50 (murine Aurora-A) | IC50 (HER2 cytoplasmic domain) | IC50 ([2]; Homo sapiens) | IC50 (HCT-116 colon carcinoma; [4]) | IC50 (A375 malignant melanoma; [5]) | IC50 (CDK1:Cyclin-B; [6]) | IC50 (murine Aurora-A; [6]) | IC50 [2] | IC50 (HCT-116 colon carcinoma; 14C-thymidine incorporation) | IC50 (A375 malignant melanoma; 14C-thymidine incorporation) | IC50 ([1]; IC50 VEGF-R2)
CON=Cc1c(N)ncnc1Oc1ccc(NC(=O)Nc2ncc(C)s2)c(Cl)c1 [Cpd 90, 1-{4-[6-amino-5-(methoxyimino-methyl)-pyrimidin-4-yloxy]-2-chloro-phenyl}-3-(5-methyl-thiazol-2-yl)-urea] | > 100 µM | 0.037 µM | > 10 µM | > 1 µM | > 100 µM | > 10 µM | > 10 µM | – | – | – | – | – | –
CON=Cc1c(N)ncnc1Oc1ccc(NC(=O)NC2CC2)c(Cl)c1 [Cpd 85, 1-{4-[6-amino-5-(methoxyimino-methyl)-pyrimidin-4-yloxy]-2-chloro-phenyl}-3-cyclopropyl-urea] | > 100 µM | 0.029 µM | > 100 µM | > 100 µM | > 100 µM | > 100 µM | > 10 µM | – | – | – | – | – | –
CON=Cc1c(N)ncnc1Oc1ccc(NC(=O)Nc2ccncc2)c(Cl)c1 [Cpd 88, 1-{4-[6-amino-5-(methoxyimino-methyl)-pyrimidin-4-yloxy]-2-chloro-phenyl}-3-pyridin-4-yl-urea] | > 100 µM | – | > 10 µM | > 10 µM | 7.39 µM | 4.69 µM | 4.34 µM | – | – | – | – | – | 0.011 µM
CON=Cc1c(N)ncnc1Oc1ccc(NC(=O)Nc2ccc(OC)cc2)c(Cl)c1 [Cpd 63, 1-{4-[6-amino-5-(methoxyimino-methyl)-pyrimidin-4-yloxy]-2-chloro-phenyl}-3-(4-methoxy-phenyl)-urea] | – | 0.0022 µM | – | > 10 µM | – | – | – | > 100 µM | > 100 µM | > 10 µM | > 10 µM | > 10 µM | –
CON=Cc1c(N)ncnc1Oc1ccc(CC(=O)Nc2ccccc2)cc1 [Cpd 97, 2-{4-[6-amino-5-(methoxyimino-methyl)-pyrimidin-4-yloxy]-phenyl}-N-phenyl-acetamide] | > 100 µM | 0.0407 µM | > 100 µM | 1.31 µM | > 10 µM | > 10 µM | > 10 µM | – | – | – | – | – | –
CON=Cc1c(N)ncnc1Oc1ccc(NC(=O)NCCO)c(Cl)c1 [Cpd 81, 1-{4-[6-amino-5-(methoxyimino-methyl)-pyrimidin-4-yloxy]-2-chloro-phenyl}-3-(2-hydroxy-ethyl)-urea] | > 100 µM | 0.168 µM | > 100 µM | > 100 µM | 4.27 µM | 4.06 µM | 3.91 µM | – | – | – | – | – | –
CCNC(=O)Nc1ccc(Oc2ncnc(N)c2C=NOC)c(Cl)c1 [Cpd 71, 1-{4-[6-amino-5-(methoxyimino-methyl)-pyrimidin-4-yloxy]-3-chloro-phenyl}-3-ethyl-urea] | > 100 µM | 0.179 µM | > 10 µM | > 1 µM | 3.98 µM | 4.79 µM | 3.09 µM | – | – | – | – | – | –
CON=Cc1c(N)ncnc1Oc1ccc(NC(=O)Nc2cccc(F)c2)c(Cl)c1 [Cpd 57, 1-{4-[6-amino-5-(methoxyimino-methyl)-pyrimidin-4-yloxy]-2-chloro-phenyl}-3-(3-fluoro-phenyl)-urea] | > 100 µM | 0.0017 µM | > 100 µM | > 10 µM | > 10 µM | > 10 µM | > 10 µM | – | – | – | – | – | –
CON=Cc1c(N)ncnc1Oc1ccc(NC(=O)NC2CCCCC2)c(Cl)c1 [Cpd 65, 1-{4-[6-amino-5-(methoxyimino-methyl)-pyrimidin-4-yloxy]-2-chloro-phenyl}-3-cyclohexyl-urea] | > 100 µM | 0.0065 µM | > 100 µM | > 10 µM | > 100 µM | > 100 µM | > 100 µM | – | – | – | – | – | –
CON=Cc1c(N)ncnc1Oc1ccc(NC(=O)Nc2cccc(C)c2)c(Cl)c1 [Cpd 76, 1-{4-[6-amino-5-(methoxyimino-methyl)-pyrimidin-4-yloxy]-2-chloro-phenyl}-3-m-tolyl-urea] | > 100 µM | 0.002 µM | > 100 µM | > 10 µM | > 10 µM | > 10 µM | > 10 µM | – | – | – | – | – | –
Cc1cc2c(F)c(Oc3ncnc(N)c3C=NOCCCN3CCNCC3)ccc2[nH]1 [Cpd 21, 4-amino-6-(4-fluoro-2-methyl-1H-indol-5-yloxy)-pyrimidine-5-carbaldehyde O-(3-piperazin-1-yl-propyl)-oxime] | > 100 µM | 0.036 µM | > 10 µM | 0.767 µM | 24.5 µM | 68.1 µM | 11.2 µM | – | – | – | – | – | –
CON=Cc1c(N)ncnc1Oc1ccc(NC(=O)Nc2cccnc2)c(Cl)c1 [Cpd 87, 1-{4-[6-amino-5-(methoxyimino-methyl)-pyrimidin-4-yloxy]-2-chloro-phenyl}-3-pyridin-3-yl-urea] | > 100 µM | 0.01 µM | > 100 µM | > 1 µM | 4.63 µM | 4.67 µM | 3.41 µM | – | – | – | – | – | –

The next lines start with results.

IC50 (CDK1:Cyclin-B) | IC50 [1, 3] | IC50 (murine Aurora-A) | IC50 (HER2 cytoplasmic domain) | IC50 ([2]; Homo sapiens) | IC50 (HCT-116 colon carcinoma; [4]) | IC50 (A375 malignant melanoma; [5]) | IC50 (CDK1:Cyclin-B; [6]) | IC50 (murine Aurora-A; [6]) | IC50 [2] | IC50 (HCT-116 colon carcinoma; 14C-thymidine incorporation) | IC50 (A375 malignant melanoma; 14C-thymidine incorporation) | SMILES | IC50 ([1]; IC50 VEGF-R2)
> 100 µM | 0.0072 µM | > 100 µM | > 100 µM | > 100 µM | > 100 µM | > 100 µM | – | – | – | – | – | CCCCNC(=O)Nc1ccc(Oc2ncnc(N)c2C=NOC)cc1Cl [Cpd 64, 1-{4-[6-amino-5-(methoxyimino-methyl)-pyrimidin-4-yloxy]-2-chloro-phenyl}-3-butyl-urea] | –
> 100 µM | 0.0191 µM | > 100 µM | > 10 µM | > 1 µM | > 1 µM | > 1 µM | – | – | – | – | – | C=CCNC(=O)Nc1ccc(Oc2ncnc(N)c2C=NOC)cc1Cl [Cpd 53, 1-allyl-3-{4-[6-amino-5-(methoxyimino-methyl)-pyrimidin-4-yloxy]-2-chloro-phenyl}-urea] | –
> 100 µM | > 100 µM | > 100 µM | > 100 µM | > 10 µM | > 10 µM | > 10 µM | – | – | – | – | – | CON=Cc1c(N)ncnc1Oc1ccc2c(c1)cc(C)n2C(=O)NCc1ccccc1 [Cpd 47, 5-[6-amino-5-(methoxyimino-methyl)-pyrimidin-4-yloxy]-2-methyl-indole-1-carboxylic acid benzylamide] | –
> 100 µM | 0.0039 µM | > 100 µM | > 1 µM | > 10 µM | > 10 µM | 2.19 µM | – | – | – | – | – | CON=Cc1c(N)ncnc1Oc1ccc(NC(=O)Nc2nc(C)cs2)c(Cl)c1 [Cpd 89, 1-{4-[6-amino-5-(methoxyimino-methyl)-pyrimidin-4-yloxy]-2-chloro-phenyl}-3-(4-methyl-thiazol-2-yl)-urea] | –
> 10 µM | > 100 µM | > 10 µM | > 1 µM | > 10 µM | > 10 µM | > 10 µM | – | – | – | – | – | CNC(=O)Nc1ccc(Oc2ncnc(N)c2C=NOC)cc1Br [Cpd 73, 1-{4-[6-amino-5-(methoxyimino-methyl)-pyrimidin-4-yloxy]-2-bromo-phenyl}-3-methyl-urea] | –
> 100 µM | 0.108 µM | > 100 µM | > 10 µM | 4.37 µM | 3.43 µM | 3.77 µM | – | – | – | – | – | CON=Cc1c(N)ncnc1Oc1ccc2c(c1)cc(C)n2C(=O)NCCO [Cpd 39, 5-[6-amino-5-(methoxyimino-methyl)-pyrimidin-4-yloxy]-2-methyl-indole-1-carboxylic acid (2-hydroxy-ethyl)-amide] | –

— patent US8013153B2, “Substituted pyrimidine kinase inhibitors” (Janssen Pharmaceutica, N.V., priority 2006, dated 2011)
